Measurements as given in ChEMBL document CHEMBL5357036, “Latest developments in coumarin-based anticancer agents: mechanism of action and structure-activity relationship studies” (RSC Med Chem, 2024).
Converted amounts (≈) assume the structure as drawn.

Legend:
DU-145 = experiment: Anticancer activity against human DU-145 cells assessed as cell growth inhibition measured after 48 hrs by MTT assay; assay type: functional, cell-based; details: DU-145, 48 h
B16-F10 = experiment: Cytotoxicity against mouse B16F10 cells assessed as reduction in cell viability incubated for 48 hrs by MTT assay; assay type: functional, cell-based; details: B16-F10, 48 h
HCT-116 = experiment: Antiproliferative activity against human HCT-116 cells assessed as reduction in cell viability incubated for 72 hrs by MTT assay; assay type: functional, cell-based; details: HCT-116, 72 h
[1] = Cytotoxicity against mouse DLA cell assessed as reduction in cell viability by trypan blue assay; assay type: functional, cell-based
Ehrlich = experiment: Cytotoxicity against mouse EAC cell assessed as reduction in cell viability by MTT assay; assay type: functional, cell-based
[2] = Cytotoxicity against mouse DLA cell assessed as reduction in cell viability by LDH leak assay; assay type: functional, cell-based
A549 [3] = experiment: Cytotoxicity against human A549 cells assessed as reduction in cell growth measured after 48 hrs by MTT assay; assay type: functional, cell-based; details: A549, 48 h
MCF7 [4] = experiment: Cytotoxicity against human MCF7 cells assessed as reduction in cell growth measured after 48 hrs by MTT assay; assay type: functional, cell-based; details: MCF7, 48 h
HeLa [5] = experiment: Cytotoxicity against human HeLa cells assessed as reduction in cell growth measured after 48 hrs by MTT assay; assay type: functional, cell-based
MCF7 [6] = experiment: Cytotoxicity against human MCF7 cells assessed as cell growth inhibition after 48 hrs by MTT assay; assay type: functional, cell-based; details: MCF7, 48 h
SK-OV-3 = experiment: Antiproliferative activity against human SK-OV-3 cells assessed as reduction in cell growth by SRB assay; assay type: functional, cell-based
MCF7 [7] = experiment: Cytotoxicity against human MCF7 cells assessed as reduction in cell growth incubated for 5 days by MTT assay; assay type: functional, cell-based; details: MCF7, 120 h
[8] = Cytotoxicity against human HEK cells assessed as reduction in cell growth incubated for 5 days by MTT assay; assay type: functional, cell-based; details: HEK293, 120 h
HeLa [9] = experiment: Growth inhibition of human HeLa cells incubated for 48 hrs by MTT assay; assay type: functional
HepG2 [10] = experiment: Anticancer activity against human HepG2 cells assessed as reduction in cell viability measured after 72 hrs by MTT assay; assay type: functional, cell-based; details: HepG2, 72 h
HeLa [11] = experiment: Cytotoxicity against human HeLa cells assessed as reduction in cell growth by MTT assay; assay type: functional, cell-based
4T1 = experiment: Cytotoxicity against mouse 4T1 cells assessed as inhibition of cell proliferation incubated for 72 hrs by MTT assay; assay type: functional, cell-based; details: 4T1, 72 h
MCF7 [12] = experiment: Cytotoxicity against human MCF7 cells assessed as inhibition of cell proliferation incubated for 72 hrs by MTT assay; assay type: functional, cell-based; details: MCF7, 72 h
C6 = experiment: Antiproliferative activity against rat C6 cells assessed as inhibition of cell growth; assay type: functional, cell-based
MCF7 [13] = experiment: Antiproliferative activity against human MCF7 cells assessed as reduction in cell viability measured after 48 hrs by MTT assay; assay type: functional, cell-based; details: MCF7, 48 h
HepG2 [14] = experiment: Antiproliferative activity against human HepG2 cells assessed as reduction in cell viability measured after 48 hrs by MTT assay; assay type: functional, cell-based; details: HepG2, 48 h
HepG2 [15] = experiment: Cytotoxicity against human HepG2 cells assessed as reduction in cell viability measured after 24 hrs by MTT assay; assay type: functional, cell-based; details: HepG2, 24 h
SNB-75 = experiment: Antiproliferative activity against human SNB-75 cells assessed as cell growth inhibition at 10 uM by SRB assay relative to control; assay type: functional
HepG2 [16] = experiment: Cytotoxicity against human HepG2 cells assessed as growth inhibition measured after 48 hrs by MTT assay; assay type: functional, cell-based; details: HepG2, 48 h
MDA-MB-231 = experiment: Antiproliferative activity against human MDA-MB-231 cells assessed as cell growth inhibition by SRB assay; assay type: functional, cell-based
K562 = experiment: Antiproliferative activity against human K562 cells assessed as cell growth inhibition; assay type: functional, cell-based
HL-60 = experiment: Antiproliferative activity against human HL-60 cells assessed as cell growth inhibition measured after 72 hrs by trypan blue staining based assay; assay type: functional; details: HL-60, 72 h
KE-37 = experiment: Anticancer activity against human KE-37 cells assessed as reduction in cell viability; assay type: functional, cell-based
HeLa [17] = experiment: Anticancer activity against human HeLa cells assessed as reduction in cell viability measured after 72 hrs by MTT assay; assay type: functional, cell-based
MCF7 [18] = experiment: Anticancer activity against human MCF7 cells assessed as reduction in cell viability measured after 72 hrs by MTT assay; assay type: functional, cell-based; details: MCF7, 72 h
MGC-803 = experiment: Cytotoxicity against human MGC-803 cells assessed as cell growth inhibition incubated for 24 hrs by MTT assay; assay type: functional, cell-based; details: MGC-803, 24 h
NCI-H460 = experiment: Cytotoxicity against human NCI-H460 cells assessed as cell growth inhibition incubated for 24 hrs by MTT assay; assay type: functional, cell-based; details: NCI-H460, 24 h
A549 [19] = experiment: Cytotoxicity against human A549 cells assessed as cell growth inhibition incubated for 24 hrs by MTT assay; assay type: functional, cell-based; details: A549, 24 h

Molecule `O=c1oc2ccccc2c2c1nc(-c1ccc(C(F)(F)F)cc1)c1occc12` has an IC50 (DU-145) of 20.9 µM and an IC50 (B16-F10) of 13 µM.
For `CCN(CC)c1ccc2cc(C(=O)/C=C/c3ccc(OC)c(O)c3)c(=O)oc2c1`, the IC50 (HCT-116) was 3.6 µM.
`COc1ccc(-c2csc(NC(=O)c3cc4ccc(OC)cc4oc3=O)n2)cc1` gave an IC50 [1] of 15.6 µM, an IC50 (Ehrlich) of 15.3 µM and an IC50 [2] of 14.2 µM.
In the case of `COc1ccc2oc(=O)c(/C=C3\SC(=O)N(C(=O)c4ccc(Cl)cc4)C3=O)cc2c1`, the IC50 (A549 [3]) is reported as 0.95 µM, the IC50 (MCF7 [4]) is reported as 0.95 µM and the IC50 (HeLa [5]) is reported as 0.95 µM.
In the case of `COc1ccc(-c2cc(-c3cc4ccccc4oc3=O)nc(Cc3ccc(F)cc3)n2)cc1`, the IC50 (MCF7 [6]) is reported as 2.23 µM.
For `Cc1cc(=O)oc2cc(OCCOCCN3C(=O)/C(=N/O)c4ccccc43)ccc12`, the IC50 (SK-OV-3) was 18.6 µM.
With `CC(c1cc2ccccc2oc1=O)(c1c[nH]c2ccc(Br)cc12)c1c[nH]c2ccc(Br)cc12` the IC50 (MCF7 [7]) was 21.2 µM and the IC50 [8] was > 50 µM.
`O=c1cc(-c2nccc3c2[nH]c2ccccc23)c2cc(Cl)ccc2o1` gave a GI50 (HeLa [9]) of 23.4 µg/mL (≈ 67.5 µM).
For `O=C(OCCCOc1no[n+]([O-])c1S(=O)(=O)c1ccccc1)c1cc2ccccc2oc1=O`, the IC50 (HepG2 [10]) was 3.86 µM.
Work on `Cc1c(Cc2ccc(NC(=O)Nc3cccc(Cl)c3)nc2)c(=O)oc2cc(O)c(C(C)(C)C)cc12` yielded an IC50 (HeLa [11]) of 2.17 µM.
`O=C(Cc1cc(=O)oc2cc(O)ccc12)NCCCCCCCCCNc1c2c(nc3ccccc13)CCCC2` showed an IC50 (4T1) of 5.7 µM and an IC50 (MCF7 [12]) of 6 µM.
Work on `Cc1cn(Cc2cc(=O)oc3ccc(Cl)cc23)c(=O)n(Cc2cc(=O)oc3ccc(Cl)cc23)c1=O` yielded an IC50 (C6) of 4.85 µM.
In the case of `N#Cc1c(NN)nc(SCc2cc(=O)oc3ccccc23)nc1-c1ccccc1`, the IC50 (MCF7 [13]) is reported as 6.9 µg/mL (≈ 17.2 µM) and the IC50 (HepG2 [14]) is reported as 5.5 µM.
`O=C(Nc1ccc(/C=C/C(=O)c2cc3ccccc3oc2=O)cc1)Nc1ccc([N+](=O)[O-])cc1` showed an IC50 (HepG2 [15]) of 2.33 µM.
`COc1cc2c3c(c(=O)oc2cc1OS(=O)(=O)c1ccc(C(F)(F)F)cc1)CCCCC3` gave an inhibition at 10 µM (SNB-75) of 91.9%.
`CCCCOc1ccc2cc(C(=O)NNC(=O)c3c(C)oc4nc(N(CCC)CCC)n(-c5ccc(C)cc5)c(=O)c34)c(=O)oc2c1` showed an IC50 (HepG2 [16]) of 4.87 µM.
Molecule `O=C(N/N=C/c1c(Cl)c2ccccc2oc1=O)c1ccccc1` has an IC50 (MDA-MB-231) of 9.1 µM, an IC50 (K562) of 7.2 µM and an IC50 (HL-60) of 2.9 µM. For the same molecule, the IC50 (KE-37) was 5.3 µM.
`O=C(NCCOCc1no[n+]([O-])c1S(=O)(=O)c1ccccc1)c1cc2ccccc2oc1=O` gave an IC50 (HeLa [17]) of 0.88 µM and an IC50 (MCF7 [18]) of 0.61 µM.
For `O=c1oc2ccccc2cc1NCc1ccc(Br)cc1`, the IC50 (MGC-803) was 10.2 µM, the IC50 (NCI-H460) was 9.25 µM and the IC50 (A549 [19]) was 8.75 µM.
